Our source for the IC50 values is patent US20240360154A1, “AROYL SUBSTITUTED TRICYCLIC COMPOUND, PREPARATION METHOD THEREFOR AND USE THEREOF” (GENFLEET THERAPEUTICS (SHANGHAI) INC., priority 2020, published 2024).

Each structure is given as a SMILES string.

For one assay, the target named is BTK (Homo sapiens (Human), UniProt Q06187). Nature of the assay: BTK enzyme experiment (ADP-Glo kinase assay). The format is biochemical. The note with it: 10 nM BTK, ATP 125 μM, Poly(Glu4, Tyr1), 90 minutes at 20° C.; read-out: BTK(WT) IC50. Here is the method:
(§1) A 3-fold gradient concentration stock solution of 1000× compound was prepared using DMSO and diluted 100-fold to 10× compound stock solution using reaction buffer (50 mM HEPES, pH 7.5, 0.0015% Briji-35, 2 mM DTT, 10 mM MgCl2), and the 10× compound stock solution was transferred to a 384-well plate. Enzyme reactions were set up with BTK Kinase Enzyme System (Promega Catalog #V2941) or BTK (C481S) Kinase Enzyme System (Promega Catalog #VA7033). First, a 2× enzyme solution containing 10 nM BTK or 10 nM BTK C481S was prepared with reaction buffer and added to the plate, and incubated with the compound for 10 minutes. […] Finally, the kinase activity was detected according to the experimental steps provided by ADP-Glo™ kinase Assay Kit (Promega, #V9101), and finally the luminescence chemiluminescence value was read. DMSO was used as the maximum signal value, and adding no enzyme was used as the minimum signal value. The inhibition rate of the compound (%)=(maximum signal value−compound signal value)/(maximum signal value−minimum signal value)×100% was calculated. The compound gradient dilution concentration and the corresponding inhibition rate of the enzyme activity were fit by using XLFit four-parameter method, and IC50 value was calculated.
On the technique in general: ADP-Glo first removes unused ATP, then detects ADP through luciferase.

The next assay deals with BTK (C481S) (Homo sapiens (Human), UniProt Q06187, C481S). The experiment in a line: BTK C481S enzyme experiment (ADP-Glo kinase assay). The note with it: 10 nM BTK C481S, ATP 125 μM, Poly(Glu4, Tyr1), 90 minutes at 20° C. The format is biochemical. Here is the method:
as §1

Sequence of BTK (Q06187 whole entry): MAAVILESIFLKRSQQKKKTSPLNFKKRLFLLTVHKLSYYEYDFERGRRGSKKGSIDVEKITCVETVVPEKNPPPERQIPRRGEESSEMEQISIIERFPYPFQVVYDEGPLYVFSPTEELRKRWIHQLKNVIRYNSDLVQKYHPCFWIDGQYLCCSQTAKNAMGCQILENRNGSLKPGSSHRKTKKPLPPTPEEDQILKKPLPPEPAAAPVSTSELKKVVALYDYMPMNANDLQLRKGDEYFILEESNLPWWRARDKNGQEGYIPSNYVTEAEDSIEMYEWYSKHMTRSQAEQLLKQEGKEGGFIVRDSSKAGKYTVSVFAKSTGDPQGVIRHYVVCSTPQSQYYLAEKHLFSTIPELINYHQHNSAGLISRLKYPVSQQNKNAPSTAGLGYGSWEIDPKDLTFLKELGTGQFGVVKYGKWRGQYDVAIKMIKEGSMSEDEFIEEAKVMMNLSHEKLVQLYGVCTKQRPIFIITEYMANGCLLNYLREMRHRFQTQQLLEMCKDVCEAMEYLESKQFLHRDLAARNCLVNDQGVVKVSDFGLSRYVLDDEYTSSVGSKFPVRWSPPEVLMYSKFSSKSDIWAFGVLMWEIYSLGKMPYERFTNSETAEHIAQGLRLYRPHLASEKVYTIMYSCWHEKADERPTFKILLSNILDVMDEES
Sequence of BTK (C481S) (Q06187 whole entry C481S): as the sequence (Q06187 whole entry) above, with C481S counted along it

What is called IC50 is the concentration that inhibits the measured activity by half. For `N#C[C@H]1CC[C@@]2(C1)Nc1c(cnc3[nH]cc(C(=O)c4ccc(Oc5ccccc5)cc4Cl)c13)NC2=O` (single isomer, unassigned) [Z26-4], the IC50 at BTK amounted to 0.0359 µM; against BTK (C481S) it was 0.0285 µM.

Consider `COCC1(C)Nc2c(cnc3[nH]cc(C(=O)c4ccc(Oc5ccccc5)cc4Cl)c23)N(C)C1=O` (single isomer, unassigned) [Z52-2, 9-(2-chloro-4-phenoxybenzoyl)-2-(methoxymethyl)-2,4-dimethyl-1,2,4,7-tetrahydro-3H-pyrrolo[3′,2′:5,6]pyrido[3,4-b]pyrazin-3-one], for which the figures for the IC50 on BTK and at BTK (C481S) were 0.136 µM and 0.0923 µM, respectively.

`COCC1(C)Nc2c(cnc3[nH]cc(C(=O)c4ccc(Oc5cc(C)ccn5)cc4Cl)c23)NC1=O` (single isomer, unassigned) [Z64-2, 9-(2-chloro-4-((4-methylpyridin-2-yl)oxy)benzoyl)-2-(methoxymethyl)-2-methyl-1,2,4,7-tetrahydro-3H-pyrrolo[3′,2′:5,6]pyrido[3,4-b]pyrazin-3-one]: the results for the IC50 at BTK and at BTK (C481S) were 0.0084 µM and 0.0172 µM, respectively.

As for `CCOC[C@@]1(C)Nc2c(cnc3[nH]cc(C(=O)c4ccc(Oc5ccccc5)cc4Cl)c23)NC1=O` (single isomer, unassigned) [Z67-2], the half-maximal inhibitory concentration (IC50) at BTK was found to be 0.0204 µM; on BTK (C481S), 0.0178 µM.

As to `COCC1(C)Nc2c(cnc3[nH]cc(C(=O)c4ccc(Oc5cc(C)ccn5)cc4F)c23)NC1=O` (single isomer, unassigned) [Z69-1, 9-(2-fluoro-4-((4-methylpyridin-2-yl)oxy)benzoyl)-2-(methoxymethyl)-2-methyl-1,2,4,7-tetrahydro-3H-pyrrolo[3′,2′:5,6]pyrido[3,4-b]pyrazin-3-one], the IC50 amounted to 0.0139 µM on BTK and 0.0212 µM at BTK (C481S).

Turning to `COCC1(C)Nc2c(cnc3[nH]cc(C(=O)c4ccc(Oc5cc(C)ccn5)cc4F)c23)NC1=O` (single isomer, unassigned) [Z69-2, 9-(2-fluoro-4-((4-methylpyridin-2-yl)oxy)benzoyl)-2-(methoxymethyl)-2-methyl-1,2,4,7-tetrahydro-3H-pyrrolo[3′,2′:5,6]pyrido[3,4-b]pyrazin-3-one], the IC50 at BTK came to 0.0175 µM; against BTK (C481S), 0.0283 µM.

As to `COC[C@]1(C)Nc2c(cnc3[nH]cc(C(=O)c4ccc(Oc5ccccc5)cc4F)c23)NC1=O` (single isomer, unassigned) [Z71-2], the IC50 on BTK came to 0.0235 µM; against BTK (C481S), 0.0192 µM.

In the case of `COCC1(C)Nc2c(cnc3[nH]cc(C(=O)c4ccc(Oc5cc(C6CC6)ccn5)cc4Cl)c23)NC1=O` (single isomer, unassigned) [Z73-1, 9-(2-chloro-4-((4-cyclopropylpyridin-2-yl)oxy)benzoyl)-2-(methoxymethyl)-2-methyl-4,7-dihydro-1H-pyrrolo[3′,2′:5,6]pyrido[3,4-b]pyrazin-3(2H)-one], the IC50 was 0.0153 µM on BTK and 0.0295 µM against BTK (C481S).

Take `COCC1(C)Nc2c(cnc3[nH]cc(C(=O)c4ccc(Oc5cc(C6CC6)ccn5)cc4Cl)c23)NC1=O` (single isomer, unassigned) [Z73-2, 9-(2-chloro-4-((4-cyclopropylpyridin-2-yl)oxy)benzoyl)-2-(methoxymethyl)-2-methyl-4,7-dihydro-1H-pyrrolo[3′,2′:5,6]pyrido[3,4-b]pyrazin-3(2H)-one]: the IC50 came to 0.0343 µM on BTK and 0.0608 µM against BTK (C481S).

Regarding `COCCOCC1(C)Nc2c(cnc3[nH]cc(C(=O)c4ccc(Oc5ccccc5)cc4Cl)c23)NC1=O` (single isomer, unassigned) [Z153-2, 9-(2-chloro-4-phenoxybenzoyl)-2-((2-methoxyethoxy)methyl)-2-methyl-1,2,4,7-tetrahydro-3H-pyrrolo[3′,2′:5,6]pyrido[3,4-b]pyrazin-3-one], the IC50 was found to be 0.114 µM at BTK and 0.0511 µM against BTK (C481S).

For the compound `CN1CCC2(CC1)Nc1c(cnc3[nH]cc(C(=O)c4ccc(Oc5ccccc5)cc4Cl)c13)NC2=O` [Z17, 9′-(2-chloro-4-phenoxybenzoyl)-1-methyl-4′,7′-dihydrospiro[piperidine-4,2′-pyrrolo[3′,2′:5,6]pyrido[3,4-b]pyrazin]-3′(1′H)-one], the figures for the IC50 at BTK and against BTK (C481S) were 0.345 µM and 0.273 µM, respectively.

Turning to `O=C(c1ccc(Oc2ccccc2)cc1Cl)c1c[nH]c2ncc3c(c12)NC1(CCOC1)CO3` (stereo not shown) [Z18], the IC50 is 0.145 µM at BTK and 0.0877 µM on BTK (C481S).

Consider `CN1CCCC2(C1)Nc1c(cnc3[nH]cc(C(=O)c4ccc(Oc5ccccc5)cc4Cl)c13)NC2=O` (stereo not shown) [Z19, 9′-(2-chloro-4-phenoxybenzoyl)-1-methyl-4′,7′-dihydrospiro[piperidine-3,2′-pyrrolo[3′,2′:5,6]pyrido[3,4-b]pyrazin]-3′(1′H)-one], for which the IC50 on BTK is 0.0231 µM; against BTK (C481S) it was 0.0126 µM.

With `CN1C(=O)C2(CCOCC2)Nc2c1cnc1[nH]cc(C(=O)c3ccc(Oc4ccccc4)cc3Cl)c21` [Z22, 9′-(2-chloro-4-phenoxybenzoyl)-4′-methyl-2,3,4′,5,6,7′-hexahydrospiro[pyran-4,2′-pyrrolo[3′,2′:5,6]pyrido[3,4-b]pyrazin]-3′(1′H)-one], the IC50 stood at 0.0271 µM on BTK and 0.0072 µM against BTK (C481S).

Turning to `CC1(CO)Nc2c(cnc3[nH]cc(C(=O)c4ccc(Oc5ncccc5C(F)(F)F)cc4Cl)c23)NC1=O` (stereo not shown) [Z55, 9-(2-chloro-4-((3-(trifluoromethyl)pyridin-2-yl)oxy)benzoyl)-2-(hydroxymethyl)-2-methyl-4,7-dihydro-1H-pyrrolo[3′,2′:5,6]pyrido[3,4-b]pyrazin-3(2H)-one], the results for the half-inhibitory concentration (IC50) on BTK and on BTK (C481S) were 0.142 µM and 0.12 µM, respectively.

Take `Cc1ccnc(Oc2ccc(C(=O)c3c[nH]c4ncc5c(c34)NC(C)(CO)C(=O)N5)c(Cl)c2)c1` (stereo not shown) [Z56, 9-(2-chloro-4-((4-methylpyridin-2-yl)oxy)benzoyl)-2-(hydroxymethyl)-2-methyl-1,2,4,7-tetrahydro-3H-pyrrolo[3′,2′:5,6]pyrido[3,4-b]pyrazin-3-one]: the results for the IC50 at BTK and against BTK (C481S) were 0.0229 µM and 0.0184 µM, respectively.

Take `CN(C)CCN1C(=O)C(C)(C)Nc2c1cnc1[nH]cc(C(=O)c3ccc(Oc4ccccc4)cc3Cl)c21` [Z63]: the IC50 on BTK amounted to 0.185 µM; against BTK (C481S), 0.129 µM.

Regarding `COCC1(C)Nc2c(cnc3[nH]cc(C(=O)c4ccc(Oc5cc(C)ccn5)cc4F)c23)NC1=O` (stereo not shown) [Z69, 9-(2-fluoro-4-((4-methylpyridin-2-yl)oxy)benzoyl)-2-(methoxymethyl)-2-methyl-1,2,4,7-tetrahydro-3H-pyrrolo[3′,2′:5,6]pyrido[3,4-b]pyrazin-3-one], the IC50 at BTK worked out at 0.0348 µM; against BTK (C481S) it was 0.028 µM.

`COC[C@]1(C)Nc2c(cnc3[nH]cc(C(=O)c4ccccc4Cl)c23)NC1=O` [Z79, (S)-9-(2-chlorobenzoyl)-2-(methoxymethyl)-2-methyl-1,2,4,7-tetrahydro-3H-pyrrolo[3′,2′:5,6]pyrido[3,4-b]pyrazin-3-one]: the IC50 at BTK was 0.0058 µM; at BTK (C481S), 0.0032 µM.

Take `COC[C@]1(C)Nc2c(cnc3[nH]cc(C(=O)c4cc(F)ccc4Cl)c23)NC1=O` [Z85, (S)-9-(2-chloro-5-fluorobenzoyl)-2-(methoxymethyl)-2-methyl-1,2,4,7-tetrahydro-3H-pyrrolo[3′,2′:5,6]pyrido[3,4-b]pyrazin-3-one]: the IC50 on BTK was 0.0152 µM; on BTK (C481S) it was 0.0185 µM.
